From patent publication US20250288683A1, “TETRAHYDROISOQUINOLINE HETEROBIFUNCTIONAL BCL-XL DEGRADERS” (Treeline Biosciences, Inc., priority 2022, published 2025)

target: T1, Human BCL-XL protein (N-terminal HiBiT tagged BCL-XL in HT1080 cells) (Homo sapiens, UniProt Q07817); experiment: HiBiT based degradation assay; format: cell-based; conditions: HT1080 cells expressing N-terminal HiBiT tagged BCL-XL, 24 h, normalized with DMSO control
T1 construct: expressed in transfected cells; host or cells: HT-1080 (ATCC CCL-121), stably transduced with lentivirus pLV-UBC-N-HiBiT-BCL-XL-PGK-puro and selected with puromycin
T1 sequence (Q07817 whole entry): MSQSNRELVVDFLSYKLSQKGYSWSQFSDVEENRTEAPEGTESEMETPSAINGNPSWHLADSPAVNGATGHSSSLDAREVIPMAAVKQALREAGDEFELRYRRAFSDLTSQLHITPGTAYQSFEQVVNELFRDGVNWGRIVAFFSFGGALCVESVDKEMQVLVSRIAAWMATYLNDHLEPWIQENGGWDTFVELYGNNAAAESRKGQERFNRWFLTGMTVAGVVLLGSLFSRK

| SMILES | Ymin (24 h) |
| --- | --- |
| Cc1ncsc1-c1ccc([C@@H](NC(=O)[C@@H]2C[C@@H](O)CN2C(=O)[C@@H](NC(=O)C[C@H]2CC[C@H](Oc3cccc(-c4ccc(N5CCc6cccc(C(=O)Nc7nc8ccccc8s7)c6C5)nc4C(=O)O)c3C)CC2)C(C)(C)C)C(F)(F)F)cc1 [Compound 125a, 6-(8-(benzo[d]thiazol-2-ylcarbamoyl)-3,4-dihydroisoquinolin-2 (1H)-yl)-3-(3-(((1S,4r)-4-(2-(((S)-1-((2S,4R)-4-hydroxy-2-(((R)-2,2,2-trifluoro-1-(4-(4-methylthiazol-5-yl)phenyl)ethyl)carbamoyl)pyrrolidin-1-yl)-3,3-dimethyl-1-oxobutan-2-yl)amino)-2-oxoethyl)cyclohexyl)oxy)-2-methylphenyl)picolinic acid] | A (Ymin < 50%) |
| Cc1ncsc1-c1ccc([C@H](C)NC(=O)[C@@H]2C[C@@H](O)CN2C(=O)[C@@H](n2cc(CCCCCOc3cccc(-c4ccc(N5CCc6cccc(C(=O)Nc7nc8ccccc8s7)c6C5)nc4C(=O)O)c3C)nn2)C(C)(C)C)cc1 [Compound 126a, 6-[8-(1,3-benzothiazol-2-ylcarbamoyl)-3,4-dihydro-1H-isoquinolin-2-yl]-3-[3-[5-[1-[(1S)-1-[(2S,4R)-4-hydroxy-2-[[(1S)-1-[4-(4-methylthiazol-5-yl)phenyl]ethyl]carbamoyl]pyrrolidine-1-carbonyl]-2,2-dimethyl-propyl]triazol-4-yl]pentoxy]-2-methyl-phenyl]pyridine-2-carboxylic acid] | A (Ymin < 50%) |
| Cc1ncsc1-c1ccc([C@H](C)NC(=O)[C@@H]2C[C@@H](O)CN2C(=O)[C@@H](NC(=O)CN2CCC(COc3cccc(-c4ccc(N5CCc6cccc(C(=O)Nc7nc8ccccc8s7)c6C5)nc4C(=O)O)c3C)CC2)C(C)(C)C)cc1 [Compound 127a, 6-[8-(1,3-benzothiazol-2-ylcarbamoyl)-3,4-dihydro-1H-isoquinolin-2-yl]-3-[3-[[1-[2-[[(1S)-1-[(2S,4R)-4-hydroxy-2-[[(1S)-1-[4-(4-methylthiazol-5-yl)phenyl]ethyl]carbamoyl]pyrrolidine-1-carbonyl]-2,2-dimethyl-propyl]amino]-2-oxo-ethyl]-4-piperidyl]methoxy]-2-methyl-phenyl]pyridine-2-carboxylic acid] | A (Ymin < 50%) |

Results, then the compound that gave them:

| Ymin (24 h) | SMILES |
| --- | --- |
| B (50% ≤ Ymin < 70%) | Cc1ncsc1-c1ccc([C@H](C)NC(=O)[C@@H]2C[C@@H](O)CN2C(=O)[C@@H](n2cc(CCc3ccc(Oc4cccc(-c5ccc(N6CCc7cccc(C(=O)Nc8nc9ccccc9s8)c7C6)nc5C(=O)O)c4C)cc3)nn2)C(C)(C)C)cc1 [Compound 132a, 6-(8-(benzo[d]thiazol-2-ylcarbamoyl)-3,4-dihydroisoquinolin-2 (1H)-yl)-3-(3-(4-(2-(1-((S)-1-((2S,4R)-4-hydroxy-2-(((S)-1-(4-(4-methylthiazol-5-yl)phenyl)ethyl)carbamoyl)pyrrolidin-1-yl)-3,3-dimethyl-1-oxobutan-2-yl)-1H-1,2,3-triazol-4-yl)ethyl)phenoxy)-2-methylphenyl)picolinic acid] |
| B (50% ≤ Ymin < 70%) | Cc1ncsc1-c1ccc([C@H](C)NC(=O)[C@@H]2C[C@@H](O)CN2C(=O)[C@@H](NC(=O)C(C)(C)CCc2ccc(Oc3cccc(-c4ccc(N5CCc6cccc(C(=O)Nc7nc8ccccc8s7)c6C5)nc4C(=O)O)c3C)cc2)C(C)(C)C)cc1 [Compound 133a, 6-[8-(1,3-benzothiazol-2-ylcarbamoyl)-3,4-dihydro-1H-isoquinolin-2-yl]-3-[3-[4-[4-[[(1S)-1-[(2S,4R)-4-hydroxy-2-[[(1S)-1-[4-(4-methylthiazol-5-yl)phenyl]ethyl]carbamoyl]pyrrolidine-1-carbonyl]-2,2-dimethyl-propyl]amino]-3,3-dimethyl-4-oxo-butyl]phenoxy]-2-methyl-phenyl]pyridine-2-carboxylic acid] |
